Test results from ChEMBL document CHEMBL3885881, “DrugMatrix”.

Species on record: Rattus norvegicus
Test: DrugMatrix - Regimen: Daily Repeat
Assay type: toxicity, organism-based, Sprague-Dawley
Design: regimen Daily Repeat, gender Male, age 6-8 weeks
Details: in vivo, po, route oral GAVAGE, vehicle .5 % CMC; for BASOPHIL / EOSINOPHIL / ERYTHROCYTE COUNT / HEMATOCRIT / HEMOGLOBIN / LEUKOCYTE COUNT / LYMPHOCYTE / MEAN CORPUSCULAR HEMOGLOBIN / MEAN CORPUSCULAR HEMOGLOBIN CONCENTRATION / MEAN CORPUSCULAR VOLUME / MONOCYTE / NEUTROPHIL / PLATELET COUNT: tissue Blood; for ALANINE AMINOTRANSFERASE / ALBUMIN / ALKALINE PHOSPHATASE / ASPARTATE AMINOTRANSFERASE / BLOOD UREA NITROGEN / CHLORIDE / CHOLESTEROL / CREATINE PHOSPHOKINASE / CREATININE / GLUCOSE / PHOSPHORUS / POTASSIUM / SODIUM / TOTAL PROTEIN: tissue Plasma
[1] = 0 mg/kg, 72 h, dose level Control, time 3 day
[2] = 0 mg/kg, 120 h, dose level Control, time 5 day
[3] = 28 mg/kg, 72 h, dose level Low, time 3 day
[4] = 28 mg/kg, 120 h, dose level Low, time 5 day
[5] = 2000 mg/kg, 72 h, dose level High, time 3 day
[6] = 2000 mg/kg, 120 h, dose level High, time 5 day

`CCN1CCN(c2cc3c(cc2F)c(=O)c(C(=O)O)cn3C2CC2)CC1` [ENROFLOXACIN] was tested, and the BASOPHIL [1] was 0%, the EOSINOPHIL [1] was 0.4% and the “ERYTHROCYTE COUNT” value [1] was 6.43 x10E6/uL. The HEMATOCRIT [1] was 37.36%, the HEMOGLOBIN [1] was 13.98 G/DL and the “LEUKOCYTE COUNT” value [1] was 13 x10E3/uL. For the same molecule, the LYMPHOCYTE [1] was 81.4%, the “MEAN CORPUSCULAR HEMOGLOBIN” value [1] was 21.9 pg and the “MEAN CORPUSCULAR HEMOGLOBIN CONCENTRATION” value [1] was 37.4 G/DL. For the same molecule, the “MEAN CORPUSCULAR VOLUME” value [1] was 58.52 fL, the MONOCYTE [1] was 0.4% and the NEUTROPHIL [1] was 18%. For the same molecule, the “PLATELET COUNT” value [1] was 1386 x10E3/uL, the “ALANINE AMINOTRANSFERASE” value [1] was 39.33 u/L and the ALBUMIN [1] was 3.57 G/DL. The “ALKALINE PHOSPHATASE” value [1] was 283.83 u/L, the “ASPARTATE AMINOTRANSFERASE” value [1] was 69.5 u/L and the “BLOOD UREA NITROGEN” value [1] was 14.83 mg/dL. For the same molecule, the CHLORIDE [1] was 107.33 MEQ/L, the CHOLESTEROL [1] was 75.17 mg/dL and the “CREATINE PHOSPHOKINASE” value [1] was 107.67 u/L. For the same molecule, the CREATININE [1] was 0.48 mg/dL, the GLUCOSE [1] was 172.5 mg/dL and the PHOSPHORUS [1] was 10.48 mg/dL. The POTASSIUM [1] was 6.9 MEQ/L, the SODIUM [1] was 152.33 MEQ/L and the “TOTAL PROTEIN” value [1] was 5.9 G/DL. The BASOPHIL [2] was 0%, the EOSINOPHIL [2] was 0.4% and the “ERYTHROCYTE COUNT” value [2] was 6.96 x10E6/uL. For the same molecule, the HEMATOCRIT [2] was 41.12%, the HEMOGLOBIN [2] was 15.24 G/DL and the “LEUKOCYTE COUNT” value [2] was 11.06 x10E3/uL. For the same molecule, the LYMPHOCYTE [2] was 88.6%, the “MEAN CORPUSCULAR HEMOGLOBIN” value [2] was 21.96 pg and the “MEAN CORPUSCULAR HEMOGLOBIN CONCENTRATION” value [2] was 37.1 G/DL. For the same molecule, the “MEAN CORPUSCULAR VOLUME” value [2] was 59.12 fL, the MONOCYTE [2] was 0.2% and the NEUTROPHIL [2] was 10.8%. For the same molecule, the “PLATELET COUNT” value [2] was 1155.8 x10E3/uL, the “ALANINE AMINOTRANSFERASE” value [2] was 36.33 u/L and the ALBUMIN [2] was 3.72 G/DL. For the same molecule, the “ALKALINE PHOSPHATASE” value [2] was 340.33 u/L, the “ASPARTATE AMINOTRANSFERASE” value [2] was 68.33 u/L and the “BLOOD UREA NITROGEN” value [2] was 15 mg/dL. The CHLORIDE [2] was 108.17 MEQ/L, the CHOLESTEROL [2] was 74.67 mg/dL and the “CREATINE PHOSPHOKINASE” value [2] was 110.67 u/L. For the same molecule, the CREATININE [2] was 0.47 mg/dL, the GLUCOSE [2] was 171.33 mg/dL and the PHOSPHORUS [2] was 10.05 mg/dL. For the same molecule, the POTASSIUM [2] was 6.7 MEQ/L, the SODIUM [2] was 155.5 MEQ/L and the “TOTAL PROTEIN” value [2] was 6.33 G/DL. For the same molecule, the BASOPHIL [3] was 0%, the EOSINOPHIL [3] was 0.33% and the “ERYTHROCYTE COUNT” value [3] was 6.63 x10E6/uL. The HEMATOCRIT [3] was 40.9%, the HEMOGLOBIN [3] was 15.27 G/DL and the “LEUKOCYTE COUNT” value [3] was 15.3 x10E3/uL. For the same molecule, the LYMPHOCYTE [3] was 87.67%, the “MEAN CORPUSCULAR HEMOGLOBIN” value [3] was 23.03 pg and the “MEAN CORPUSCULAR HEMOGLOBIN CONCENTRATION” value [3] was 37.33 G/DL. The “MEAN CORPUSCULAR VOLUME” value [3] was 61.73 fL, the MONOCYTE [3] was 0.33% and the NEUTROPHIL [3] was 11.67%. For the same molecule, the “PLATELET COUNT” value [3] was 1320.33 x10E3/uL, the “ALANINE AMINOTRANSFERASE” value [3] was 35.67 u/L and the ALBUMIN [3] was 3.53 G/DL. For the same molecule, the “ALKALINE PHOSPHATASE” value [3] was 256 u/L, the “ASPARTATE AMINOTRANSFERASE” value [3] was 57 u/L and the “BLOOD UREA NITROGEN” value [3] was 14 mg/dL. For the same molecule, the CHLORIDE [3] was 106.67 MEQ/L, the CHOLESTEROL [3] was 68.67 mg/dL and the “CREATINE PHOSPHOKINASE” value [3] was 123 u/L. The CREATININE [3] was 0.5 mg/dL, the GLUCOSE [3] was 170 mg/dL and the PHOSPHORUS [3] was 11.27 mg/dL. The POTASSIUM [3] was 6.83 MEQ/L, the SODIUM [3] was 151.67 MEQ/L and the “TOTAL PROTEIN” value [3] was 5.93 G/DL. For the same molecule, the BASOPHIL [4] was 0%, the EOSINOPHIL [4] was 0.67% and the “ERYTHROCYTE COUNT” value [4] was 7.38 x10E6/uL. The HEMATOCRIT [4] was 43.67%, the HEMOGLOBIN [4] was 15.73 G/DL and the “LEUKOCYTE COUNT” value [4] was 15.77 x10E3/uL. For the same molecule, the LYMPHOCYTE [4] was 91%, the “MEAN CORPUSCULAR HEMOGLOBIN” value [4] was 21.23 pg and the “MEAN CORPUSCULAR HEMOGLOBIN CONCENTRATION” value [4] was 35.97 G/DL. For the same molecule, the “MEAN CORPUSCULAR VOLUME” value [4] was 58.97 fL, the MONOCYTE [4] was 0% and the NEUTROPHIL [4] was 8.33%. The “PLATELET COUNT” value [4] was 1186 x10E3/uL, the “ALANINE AMINOTRANSFERASE” value [4] was 39 u/L and the ALBUMIN [4] was 3.77 G/DL. The “ALKALINE PHOSPHATASE” value [4] was 351 u/L, the “ASPARTATE AMINOTRANSFERASE” value [4] was 67.67 u/L and the “BLOOD UREA NITROGEN” value [4] was 13.67 mg/dL. The CHLORIDE [4] was 115 MEQ/L, the CHOLESTEROL [4] was 67.33 mg/dL and the “CREATINE PHOSPHOKINASE” value [4] was 110 u/L. For the same molecule, the CREATININE [4] was 0.6 mg/dL, the GLUCOSE [4] was 194.33 mg/dL and the PHOSPHORUS [4] was 10 mg/dL. The POTASSIUM [4] was 6.77 MEQ/L, the SODIUM [4] was 161.67 MEQ/L and the “TOTAL PROTEIN” value [4] was 6.37 G/DL. The BASOPHIL [5] was 0%, the EOSINOPHIL [5] was 0% and the “ERYTHROCYTE COUNT” value [5] was 6.71 x10E6/uL. For the same molecule, the HEMATOCRIT [5] was 40.2%, the HEMOGLOBIN [5] was 15 G/DL and the “LEUKOCYTE COUNT” value [5] was 9.93 x10E3/uL. For the same molecule, the LYMPHOCYTE [5] was 94%, the “MEAN CORPUSCULAR HEMOGLOBIN” value [5] was 22.37 pg and the “MEAN CORPUSCULAR HEMOGLOBIN CONCENTRATION” value [5] was 37.33 G/DL. For the same molecule, the “MEAN CORPUSCULAR VOLUME” value [5] was 59.87 fL, the MONOCYTE [5] was 0.33% and the NEUTROPHIL [5] was 5.67%. For the same molecule, the “PLATELET COUNT” value [5] was 1314.33 x10E3/uL, the “ALANINE AMINOTRANSFERASE” value [5] was 34 u/L and the ALBUMIN [5] was 3.4 G/DL. The “ALKALINE PHOSPHATASE” value [5] was 233.33 u/L, the “ASPARTATE AMINOTRANSFERASE” value [5] was 47.33 u/L and the “BLOOD UREA NITROGEN” value [5] was 13.33 mg/dL. The CHLORIDE [5] was 107.67 MEQ/L, the CHOLESTEROL [5] was 72.67 mg/dL and the “CREATINE PHOSPHOKINASE” value [5] was 92.33 u/L. It also gave a CREATININE [5] of 0.67 mg/dL, a GLUCOSE [5] of 183.33 mg/dL and a PHOSPHORUS [5] of 11.5 mg/dL. For the same molecule, the POTASSIUM [5] was 7.2 MEQ/L, the SODIUM [5] was 152.67 MEQ/L and the “TOTAL PROTEIN” value [5] was 5.53 G/DL. The BASOPHIL [6] was 0%, the EOSINOPHIL [6] was 0% and the “ERYTHROCYTE COUNT” value [6] was 7.19 x10E6/uL. The HEMATOCRIT [6] was 42.1%, the HEMOGLOBIN [6] was 14.8 G/DL and the “LEUKOCYTE COUNT” value [6] was 14.2 x10E3/uL. For the same molecule, the LYMPHOCYTE [6] was 97.67%, the “MEAN CORPUSCULAR HEMOGLOBIN” value [6] was 20.57 pg and the “MEAN CORPUSCULAR HEMOGLOBIN CONCENTRATION” value [6] was 35.17 G/DL. The “MEAN CORPUSCULAR VOLUME” value [6] was 58.63 fL, the MONOCYTE [6] was 0% and the NEUTROPHIL [6] was 2.33%. The “PLATELET COUNT” value [6] was 1312.33 x10E3/uL, the “ALANINE AMINOTRANSFERASE” value [6] was 39 u/L and the ALBUMIN [6] was 3.43 G/DL. The “ALKALINE PHOSPHATASE” value [6] was 266 u/L, the “ASPARTATE AMINOTRANSFERASE” value [6] was 50 u/L and the “BLOOD UREA NITROGEN” value [6] was 11.67 mg/dL. The CHLORIDE [6] was 104 MEQ/L, the CHOLESTEROL [6] was 56 mg/dL and the “CREATINE PHOSPHOKINASE” value [6] was 95.33 u/L. For the same molecule, the CREATININE [6] was 0.6 mg/dL, the GLUCOSE [6] was 152.67 mg/dL and the PHOSPHORUS [6] was 11.4 mg/dL. The POTASSIUM [6] was 6.03 MEQ/L, the SODIUM [6] was 150.67 MEQ/L and the “TOTAL PROTEIN” value [6] was 5.53 G/DL.
